Data set [1] in a line: in vitro. The conditions noted are these: dog.
Data set [2] deals with influenza virus A/Taiwan/1/86 (H1N1). Briefly: organism not typed. The conditions noted are these: MDCK, 72 h, MDCK cells infected with influenza A/Taiwan/1/86 (H1N1); three days post-virus exposure; CPE by ATP levels. It counts as cell-based.

The structures appear in SMILES notation. A value given as a limit tells only on which side of the number the result lay.

In turn, `Cc1cc(C(=O)N[C@H]2CCC[C@@H](Nc3nc(-c4c[nH]c5ncncc45)ncc3F)C2)on1` (racemic) [Compound 32] displayed a CC50 at 3 days in data set [1] greater than 25 µM. Also, the IC50 (as a rule, the midpoint of a concentration-inhibition curve) in data set [2] came out at 35 nM.

`O=C(N[C@H]1CCC[C@@H](Nc2nc(-c3c[nH]c4ncncc34)c(F)cc2F)C1)N1CCCC1` [Compound 23] registered a CC50 at 3 days in data set [1] greater than 25 µM. This compound yielded an IC50 in data set [2] of 33 nM.

The compound `O=C(O)[C@H]1C2CCC(CC2)[C@@H]1Nc1nc(-c2c[nH]c3ncncc23)c(C(F)(F)F)cc1F` [Compound 44] yielded a CC50 at 3 days in data set [1] of 9.4 µM. The same compound yielded a half-inhibitory concentration (IC50) in data set [2] of 3 nM.

`O=C(N[C@H]1CCC[C@@H](Nc2nc(-c3c[nH]c4ncncc34)ncc2F)C1)c1ccccn1` (racemic) [Compound 35] yielded a CC50 at 3 days in data set [1] greater than 25 µM. This compound registered an IC50 in data set [2] of 2 nM.

For `CC(C)Nc1nc(-c2c[nH]c3ncncc23)ncc1F` [Compound 61], the CC50 at 3 days in data set [1] was greater than 25 µM. This compound also gave a 50% inhibitory concentration (IC50) in data set [2] of 630 nM.

As to `COC(=O)CC(Nc1nc(-c2c[nH]c3ncncc23)ncc1F)C(C)(C)C` (centres unmarked) [Compound 69], the CC50 at 3 days in data set [1] is greater than 25 µM. This compound also displayed a 50% inhibitory concentration (IC50) in data set [2] of 830 nM.

For `O=C(N[C@H]1CCC[C@@H](Nc2nc(-c3c[nH]c4ncncc34)ncc2F)C1)c1ccno1` (racemic) [Compound 47], in data set [1], the CC50 at 3 days was greater than 25 µM. The compound further showed an IC50 in data set [2] of 11 nM.

`N#Cc1cc(F)c(N[C@@H]2CCC[C@H](NC(=O)c3ccccn3)C2)nc1-c1c[nH]c2ncncc12` [Compound 98] gave a CC50 at 3 days in data set [1] greater than 25 µM. Half-maximal inhibition in data set [2] (IC50) was put at 2 nM.

The compound `COC(=O)[C@H]1C2CCC(CC2)[C@@H]1Nc1nc(-c2c[nH]c3ncncc23)ncc1F` [Compound 24] returned a CC50 at 3 days in data set [1] greater than 25 µM. Moreover, the IC50 in data set [2] was determined as 325 nM.

As for `COC(=O)N[C@H]1CCC[C@@H](Nc2nc(-c3c[nH]c4ncncc34)ncc2F)C1` (racemic) [Compound 56], in data set [1], the CC50 at 3 days is greater than 25 µM. In data set [2], this compound registered a half-maximal inhibitory concentration (IC50) of 600 nM.

With `O=C(N[C@H]1CCC[C@@H](Nc2nc(-c3c[nH]c4ncncc34)ncc2F)C1)C1CCC1` (racemic) [Compound 37], in data set [1], the CC50 at 3 days is greater than 25 µM. In data set [2], this compound displayed a half-inhibitory concentration (IC50) of 205 nM.

For the compound `CC[C@@]1(C(=O)O)CCCC[C@H]1Nc1nc(-c2c[nH]c3ncncc23)ncc1F` [Compound 72], in data set [1], the CC50 at 3 days turned out to be 10.3 µM. Besides, the IC50 in data set [2] was 860 nM.

`N#Cc1cc(F)c(N[C@H]2CCC[C@@H](NC(=O)N3CCCC3)C2)nc1-c1c[nH]c2ncncc12` (stereo in doubt) [Compound 93] showed a CC50 at 3 days in data set [1] greater than 25 µM. In data set [2], this compound returned an IC50 of 6 nM.

`COCC(=O)N[C@H]1CCC[C@@H](Nc2nc(-c3c[nH]c4ncncc34)ncc2F)C1` (racemic) [Compound 66] had a CC50 at 3 days in data set [1] greater than 25 µM. The compound further returned an IC50 in data set [2] of 820 nM.

`O=C(O)c1ccccc1C(=O)N[C@H]1CCC[C@@H](Nc2nc(-c3c[nH]c4ncncc34)ncc2F)C1` (racemic) [Compound 63] returned a CC50 at 3 days in data set [1] greater than 25 µM. In data set [2], the half-inhibitory concentration (IC50) was found to be 720 nM.

`O=C(Nc1ccccc1)N[C@H]1CCC[C@@H](Nc2nc(-c3c[nH]c4ncncc34)ncc2F)C1` (racemic) [Compound 31] had a CC50 at 3 days in data set [1] greater than 25 µM. The IC50 in data set [2] came out at 21 nM.

`N#Cc1cc(F)c(N[C@H]2C3CCC(CC3)[C@@H]2C(=O)O)nc1-c1c[nH]c2ncncc12` [Compound 101]: the CC50 at 3 days in data set [1] turned out to be 10.5 µM. It took 36 nM to reach half-maximal inhibition in data set [2] (IC50).

The compound `O=C(N[C@H]1CCC[C@@H](Nc2nc(-c3c[nH]c4ncncc34)ncc2F)C1)c1cccnc1` (racemic) [Compound 49] gave a CC50 at 3 days in data set [1] greater than 25 µM. In data set [2], this compound returned a half-maximal inhibitory concentration (IC50) of 46 nM.

`Cn1cccc1C(=O)N[C@H]1CCC[C@@H](Nc2nc(-c3c[nH]c4ncncc34)ncc2F)C1` (racemic) [Compound 45] came in with a CC50 at 3 days in data set [1] greater than 25 µM. This compound also gave an IC50 in data set [2] of 4 nM.

`Cc1[nH]c2ncncc2c1-c1ncc(F)c(N[C@@H]2CCC[C@H](NC(=O)N3CCCC3)C2)n1` [Compound 83] had a CC50 at 3 days in data set [1] greater than 25 µM. In addition, the half-inhibitory concentration (IC50) in data set [2] came out at 710 nM.

The compound `CC(C)(C)C(CC(=O)O)Nc1nc(-c2c[nH]c3ncncc23)c(C#N)cc1F` (centres unmarked) [Compound 21] gave a CC50 at 3 days in data set [1] of 13.4 µM. For the same compound, the half-inhibitory concentration (IC50) in data set [2] amounted to 106 nM.

Consider `CC(C)(C)C(=O)N[C@H]1CCC[C@@H](Nc2nc(-c3c[nH]c4ncncc34)ncc2F)C1` (racemic) [Compound 64], for which the CC50 at 3 days in data set [1] was greater than 25 µM. Besides, in data set [2], inhibition was half-maximal at 760 nM (IC50).

`Fc1cnc(-c2c[nH]c3ncncc23)nc1NC1[C@H]2CC3C[C@H](C2)C[C@H]1C3` (some centres unmarked) [Compound 57] gave a CC50 at 3 days in data set [1] of 5.2 µM. The compound further returned an IC50 in data set [2] of 660 nM.

`O=C(N[C@H]1CCC[C@@H](Nc2nc(-c3c[nH]c4ncncc34)cnc2F)C1)N1CCCC1` [Compound 46] yielded a CC50 at 3 days in data set [1] greater than 25 µM. The IC50 in data set [2] was 5 nM.

Consider `Cc1nc(C(=O)N[C@H]2CCC[C@@H](Nc3nc(-c4c[nH]c5ncncc45)ncc3F)C2)c(C)o1` (racemic) [Compound 36], for which the CC50 at 3 days in data set [1] was greater than 25 µM. In data set [2], this compound returned an IC50 of 40 nM.

For the compound `Nc1ncnc2[nH]cc(-c3ncc(F)c(N[C@@H]4CCC[C@H](C(=O)N5CCCC5)C4)n3)c12` [Compound 79], the CC50 at 3 days in data set [1] was greater than 25 µM. Further, half-maximal inhibition in data set [2] (IC50) was put at 150 nM.

Turning to `CC(C)(C)[C@@H](CO)Nc1nc(-c2c[nH]c3ncncc23)ncc1F` (racemic) [Compound 55], the CC50 at 3 days in data set [1] was greater than 25 µM. Moreover, inhibition in data set [2] was half-maximal at 550 nM (IC50).

In data set [1], `CC(C)NC(=O)N[C@H]1CCC[C@@H](Nc2nc(-c3c[nH]c4ncncc34)ncc2F)C1` (racemic) [Compound 41] yielded a CC50 at 3 days greater than 25 µM. Besides, the midpoint of inhibition in data set [2], the IC50, lay at 319 nM.

Regarding `O=C(N[C@H]1CCC[C@@H](Nc2nc(-c3c[nH]c4ncncc34)ncc2F)C1)c1ccn2nccc2n1` (racemic) [Compound 29], the CC50 at 3 days in data set [1] is greater than 25 µM. In addition, it took 10 nM to reach half-maximal inhibition in data set [2] (IC50).

Consider `Cc1ncnc2[nH]cc(-c3ncc(F)c(N[C@@H]4CCC[C@H](NC(=O)N5CCCC5)C4)n3)c12` [Compound 87], for which the CC50 at 3 days in data set [1] is greater than 25 µM. For the same compound, in data set [2], the IC50 was found to be 470 nM.

Turning to `Fc1cnc(-c2c[nH]c3ncncc23)nc1NC1CCCCC1` [Compound 65], in data set [1], the CC50 at 3 days came out at 11.6 µM. In data set [2], this compound came in with an IC50 of 810 nM.

`Cn1cnc(C(=O)N[C@H]2CCC[C@@H](Nc3nc(-c4c[nH]c5ncncc45)c(F)cc3F)C2)c1` [Compound 16] had a CC50 at 3 days in data set [1] greater than 25 µM. Besides, the IC50 in data set [2] was found to be 36 nM.

On to `Cc1cc(C(=O)N[C@H]2CCC[C@@H](Nc3nc(-c4c[nH]c5ncncc45)ncc3F)C2)nn1C` (racemic) [Compound 30], for which the CC50 at 3 days in data set [1] is greater than 25 µM. Also, 21 nM corresponded to half-maximal inhibition in data set [2] (IC50).

As to `CC(C)(C)C(CC(=O)O)Nc1nc(-c2c[nH]c3ncncc23)c(C(F)(F)F)cc1F` (centres unmarked) [Compound 18], the CC50 at 3 days in data set [1] was determined as 2.48 µM. The same compound yielded an IC50 in data set [2] of 44 nM.

In data set [1], `O=C(N[C@H]1CCC[C@@H](Nc2nc(-c3c[nH]c4ncncc34)ncc2F)C1)N1CCCC1` (racemic) [Compound 7] registered a CC50 at 3 days greater than 25 µM. Moreover, the half-inhibitory concentration (IC50) in data set [2] came out at 5 nM.

In turn, `Cc1noc(C)c1C(=O)N[C@H]1CCC[C@@H](Nc2nc(-c3c[nH]c4ncncc34)ncc2F)C1` (racemic) [Compound 40] displayed a CC50 at 3 days in data set [1] greater than 25 µM. The compound further returned a 50% inhibitory concentration (IC50) in data set [2] of 190 nM.

Turning to `O=C(N[C@H]1CCC[C@@H](Nc2nc(-c3c[nH]c4ncncc34)ncc2F)C1)C1CCCCO1` (mixture of isomers) [Compound 38], the CC50 at 3 days in data set [1] was greater than 25 µM. The same compound displayed an IC50 in data set [2] of 380 nM.
